This is an account of results in ChEMBL document CHEMBL5236630, “Discovery of selective platelet-derived growth factor receptor-beta (PDGFR-β) bifunctional small-molecule degraders” (Bioorg Med Chem, 2023).

Series [1] deals with Platelet-derived growth factor receptor beta (Homo sapiens) (UniProt P09619). Put plainly: Protac activity at PDGFRbeta in human U87 cells assessed as increase in VEGFR-2 protein level at 10 uM incubated for 72 hrs by Western blot analysis. Format: cell-based.
In a further series the test system is EA.hy 926. The series can be described thus: Antiproliferative activity against human EA.hy 926 cells assessed as reduction in cell viability incubated for 48 hrs by MTT assay. Format: functional, cell-based. As to conditions: EA.hy 926, 48 h. A general note: Formazan colour is commonly taken as a measure of viable cells.
Series [2] deals with Platelet-derived growth factor receptor beta (Homo sapiens) (UniProt P09619). The series can be described thus: Protac activity at PDGFRbeta in human U87 cells assessed as reduction in PDGFRbeta protein level at 10 uM incubated for 48 hrs by Western blot analysis. Format: cell-based. In general terms: In western blotting, separated proteins are transferred to a membrane and probed.

Series [3] has the same target. The series can be described thus: Protac activity at PDGFRbeta in human U87 cells assessed as reduction in PDGFRbeta protein level at 10 uM incubated for 72 hrs by Western blot analysis. Format: cell-based. Also on record: scale not given: the % may be the effect or the level left.
The target is the same in series [4]. Put plainly: Protac activity at PDGFRbeta in human U87 cells assessed as reduction in PDGFRbeta protein level at 0.1 to 10 uM incubated for 48 to 72 hrs by Western blot analysis. The format is cell-based. To be noted: dose 0.1-10 µM, time 48-72 hrs.
A further series has as its system HepG2. Put plainly: Antiproliferative activity against human HepG2 cells assessed as reduction in cell viability incubated for 48 hrs by MTT assay. The format is functional, cell-based. As to conditions: HepG2, 48 h.
The test system of a further series is HEK293. The series can be described thus: Cytotoxicity against human HEK293 cells assessed as reduction in cell viability at 50 uM incubated for 48 hrs by MTT assay. The format is toxicity, cell-based. As to conditions: hek293, 48 h.
The target in series [5] is T1, von Hippel-Lindau disease tumor suppressor/Platelet-derived growth factor receptor beta (Homo sapiens) (UniProt P09619+P40337). The series can be described thus: Protac activity at VHL/PDGFRbeta in human U87 cells assessed as reduction in PDGFRbeta protein level at 10 uM preincubated with sorafenib for 2hrs followed by compound treatment and measured after 48 hrs by Western blot analysis. Format: cell-based.

Series [6] deals with T1, von Hippel-Lindau disease tumor suppressor/Platelet-derived growth factor receptor beta (Homo sapiens). The series can be described thus: Protac activity at VHL/PDGFRbeta in human U87 cells assessed as reduction in PDGFRbeta protein level at 10 uM preincubated with MG-132 for 2hrs followed by compound treatment and measured after 48 hrs by Western blot analysis. Format: cell-based.

Series [7] can be described thus: Induction of apoptosis in human U87 cells assessed as early apoptotic cells at 10 uM incubated for 48 hrs by Annexin-V/PI staining based flow cytometry (Rvb= 2.74%). The format is functional, U-87MG ATCC. (A flow cytometer gives signals particle by particle.)
Series [8] can be described thus: Induction of apoptosis in human U87 cells assessed as necrotic cells at 0.1 uM incubated for 48 hrs by Annexin-V/PI staining based flow cytometry (Rvb= 1.13%). Format: functional, U-87MG ATCC.
A short description of series [9]: Induction of apoptosis in human U87 cells assessed as viable cells at 5 uM incubated for 48 hrs by Annexin-V/PI staining based flow cytometry (Rvb= 93.16%). The format is functional, U-87MG ATCC. To be noted: U-87 MG, read-out: Activity.
Series [10] can be described thus: Induction of apoptosis in human U87 cells assessed as viable cells at 0.1 uM incubated for 48 hrs by Annexin-V/PI staining based flow cytometry (Rvb= 93.16%). Format: functional, U-87MG ATCC. To be noted: U-87 MG, read-out: Activity.
A short description of series [11]: Induction of apoptosis in human U87 cells assessed as late apoptotic cells at 1 uM incubated for 48 hrs by Annexin-V/PI staining based flow cytometry (Rvb= 2.97%). Format: functional, U-87MG ATCC.
A short description of series [12]: Induction of apoptosis in human U87 cells assessed as early apoptotic cells at 20 uM incubated for 48 hrs by Annexin-V/PI staining based flow cytometry (Rvb= 2.74%). The format is functional, U-87MG ATCC.
Series [13] can be described thus: Antiproliferative activity against human U87 cells assessed as reduction in cell viability incubated for 48 hrs by MTT assay. Format: functional, cell-based, U-87MG ATCC. As to conditions: U-87 MG.
The test system of series [14] is U-87MG ATCC. The series can be described thus: Induction of cell cycle arrest in human U87 cells assessed increase of cells in S phase at 1 to 10 uM incubated for 48 hrs by flow cytometry. The format is functional, cell-based. As to conditions: dose 1-10 µM.
Series [15] is described as follows: Induction of apoptosis in human U87 cells assessed as necrotic cells at 20 uM incubated for 48 hrs by Annexin-V/PI staining based flow cytometry (Rvb= 1.13%). The format is functional, U-87MG ATCC.
Series [16] is described as follows: Induction of apoptosis in human U87 cells assessed as late apoptotic cells at 5 uM incubated for 48 hrs by Annexin-V/PI staining based flow cytometry (Rvb= 2.97%). Format: functional, U-87MG ATCC.
Series [17] can be described thus: Induction of apoptosis in human U87 cells assessed as necrotic cells at 1 uM incubated for 48 hrs by Annexin-V/PI staining based flow cytometry (Rvb= 1.13%). Format: functional, U-87MG ATCC.
Series [18] is described as follows: Induction of apoptosis in human U87 cells assessed as late apoptotic cells at 0.1 uM incubated for 48 hrs by Annexin-V/PI staining based flow cytometry (Rvb= 2.97%). Format: functional, U-87MG ATCC.
The target in series [19] is T1, von Hippel-Lindau disease tumor suppressor/Platelet-derived growth factor receptor beta (Homo sapiens). The series can be described thus: Protac activity at VHL/PDGFRbeta in human U87 cells assessed as reduction in PDGFRbeta protein level at 10 uM preincubated with Carfilzomib for 2hrs followed by compound treatment and measured after 48 hrs by Western blot analysis. The format is cell-based.

Series [20] is described as follows: Induction of apoptosis in human U87 cells assessed as late apoptotic cells at 10 uM incubated for 48 hrs by Annexin-V/PI staining based flow cytometry (Rvb= 2.97%). Format: functional, U-87MG ATCC.
Series [21] in a line: Induction of apoptosis in human U87 cells assessed as early apoptotic cells at 1 uM incubated for 48 hrs by Annexin-V/PI staining based flow cytometry (Rvb= 2.74%). The format is functional, U-87MG ATCC.
Series [22] in a line: Induction of apoptosis in human U87 cells assessed as viable cells at 1 uM incubated for 48 hrs by Annexin-V/PI staining based flow cytometry (Rvb= 93.16%). Format: functional, U-87MG ATCC. As to conditions: U-87 MG, read-out: Activity.
Series [23] in a line: Induction of apoptosis in human U87 cells assessed as viable cells at 10 uM incubated for 48 hrs by Annexin-V/PI staining based flow cytometry (Rvb= 93.16%). As to conditions: U-87 MG, read-out: Activity. The format is functional, U-87MG ATCC.
Series [24] can be described thus: Induction of apoptosis in human U87 cells assessed as late apoptotic cells at 20 uM incubated for 48 hrs by Annexin-V/PI staining based flow cytometry (Rvb= 2.97%). The format is functional, U-87MG ATCC.
The target in series [25] is T1, von Hippel-Lindau disease tumor suppressor/Platelet-derived growth factor receptor beta (Homo sapiens). The series can be described thus: Protac activity at VHL/PDGFRbeta in human U87 cells assessed as reduction in PDGFRbeta protein level at 0.1 to 15 uM incubated for 72 hrs by Western blot analysis. Format: cell-based. To be noted: dose 0.1-15 µM.
Series [26] addresses Serine/threonine-protein kinase B-raf (Homo sapiens) (UniProt P15056). Put plainly: Protac activity at BRAF in human EA.hy 926 cells assessed decrease in BRAF level at 10 uM incubated for 72 hrs by Western blot analysis. The format is cell-based.
The nature of series [27]: Induction of apoptosis in human U87 cells assessed as necrotic cells at 10 uM incubated for 48 hrs by Annexin-V/PI staining based flow cytometry (Rvb= 1.13%). The format is functional, U-87MG ATCC.
The nature of series [28]: Induction of apoptosis in human U87 cells assessed as viable cells at 20 uM incubated for 48 hrs by Annexin-V/PI staining based flow cytometry (Rvb= 93.16%). To be noted: U-87 MG, read-out: Activity. The format is functional, U-87MG ATCC.
Series [29] can be described thus: Induction of apoptosis in human U87 cells assessed as necrotic cells at 5 uM incubated for 48 hrs by Annexin-V/PI staining based flow cytometry (Rvb= 1.13%). Format: functional, U-87MG ATCC.
In series [30] the test system is U-87MG ATCC. The series can be described thus: Induction of cell cycle arrest in human U87 cells assessed decrease of cells in G2 phase at 1 to 10 uM incubated for 48 hrs by flow cytometry. Format: functional, cell-based. As to conditions: dose 1-10 µM.
The target of series [31] is T1, von Hippel-Lindau disease tumor suppressor/Platelet-derived growth factor receptor beta (Homo sapiens). Put plainly: Protac activity at VHL/PDGFRbeta in human U87 cells assessed as reduction in PDGFRbeta protein level at 10 uM incubated for 4 to 16 hrs by Western blot analysis. As to conditions: time 4-16 hrs. Format: cell-based.
The target is the same in series [32]. Put plainly: Protac activity at VHL/PDGFRbeta in human U87 cells assessed as reduction in PDGFRbeta protein level at 10 uM preincubated with Leupeptin for 2hrs followed by compound treatment and measured after 48 hrs by Western blot analysis. Format: cell-based.
The target is the same in series [33]. The series can be described thus: Protac activity at VHL/PDGFRbeta in human U87 cells assessed as reduction in PDGFRbeta protein level at 10 uM preincubated with VH032 for 2hrs followed by compound treatment and measured after 48 hrs by Western blot analysis. Format: cell-based.
The nature of series [34]: Induction of apoptosis in human U87 cells assessed as early apoptotic cells at 5 uM incubated for 48 hrs by Annexin-V/PI staining based flow cytometry (Rvb= 2.74%). Format: functional, U-87MG ATCC.
Series [35] can be described thus: Induction of apoptosis in human U87 cells assessed as early apoptotic cells at 0.1 uM incubated for 48 hrs by Annexin-V/PI staining based flow cytometry (Rvb= 2.74%). Format: functional, U-87MG ATCC.

Structures are written as SMILES. Activity calls are given as the source filed them. No cut-off for these calls is given here. Where only a bound is given, the exact number is not on record here.

Platelet-derived growth factor receptor beta (Homo sapiens), sequence (P09619 whole entry): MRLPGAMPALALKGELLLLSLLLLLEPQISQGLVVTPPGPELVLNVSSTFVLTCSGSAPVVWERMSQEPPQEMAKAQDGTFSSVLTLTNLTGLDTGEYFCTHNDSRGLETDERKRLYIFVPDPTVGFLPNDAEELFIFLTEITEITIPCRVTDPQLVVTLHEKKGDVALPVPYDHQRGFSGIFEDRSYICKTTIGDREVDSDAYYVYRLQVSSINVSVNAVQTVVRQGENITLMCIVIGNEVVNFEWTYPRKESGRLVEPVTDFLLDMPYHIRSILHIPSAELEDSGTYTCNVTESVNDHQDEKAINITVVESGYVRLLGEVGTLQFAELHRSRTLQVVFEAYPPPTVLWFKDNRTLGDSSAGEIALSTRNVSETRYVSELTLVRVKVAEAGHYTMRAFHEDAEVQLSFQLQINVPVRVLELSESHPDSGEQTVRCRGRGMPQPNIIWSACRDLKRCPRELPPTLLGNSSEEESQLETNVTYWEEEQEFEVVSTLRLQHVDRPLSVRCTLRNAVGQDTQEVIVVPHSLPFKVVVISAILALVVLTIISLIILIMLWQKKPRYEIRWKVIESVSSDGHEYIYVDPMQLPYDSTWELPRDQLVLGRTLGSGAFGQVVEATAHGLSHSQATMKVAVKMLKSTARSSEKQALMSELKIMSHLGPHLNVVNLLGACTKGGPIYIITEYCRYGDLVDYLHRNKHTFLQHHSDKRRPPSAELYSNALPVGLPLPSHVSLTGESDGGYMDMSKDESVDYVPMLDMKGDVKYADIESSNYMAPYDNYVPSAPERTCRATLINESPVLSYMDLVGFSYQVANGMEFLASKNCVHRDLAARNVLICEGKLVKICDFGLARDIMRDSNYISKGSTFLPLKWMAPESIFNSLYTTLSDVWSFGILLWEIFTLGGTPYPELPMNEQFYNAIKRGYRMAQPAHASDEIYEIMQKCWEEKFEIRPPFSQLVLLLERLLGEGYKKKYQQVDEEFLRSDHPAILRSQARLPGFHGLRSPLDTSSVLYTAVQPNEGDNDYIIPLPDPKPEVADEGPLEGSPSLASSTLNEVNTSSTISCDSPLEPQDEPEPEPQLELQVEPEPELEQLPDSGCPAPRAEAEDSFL
T1 sequence (P09619 33-1106 limits assumed): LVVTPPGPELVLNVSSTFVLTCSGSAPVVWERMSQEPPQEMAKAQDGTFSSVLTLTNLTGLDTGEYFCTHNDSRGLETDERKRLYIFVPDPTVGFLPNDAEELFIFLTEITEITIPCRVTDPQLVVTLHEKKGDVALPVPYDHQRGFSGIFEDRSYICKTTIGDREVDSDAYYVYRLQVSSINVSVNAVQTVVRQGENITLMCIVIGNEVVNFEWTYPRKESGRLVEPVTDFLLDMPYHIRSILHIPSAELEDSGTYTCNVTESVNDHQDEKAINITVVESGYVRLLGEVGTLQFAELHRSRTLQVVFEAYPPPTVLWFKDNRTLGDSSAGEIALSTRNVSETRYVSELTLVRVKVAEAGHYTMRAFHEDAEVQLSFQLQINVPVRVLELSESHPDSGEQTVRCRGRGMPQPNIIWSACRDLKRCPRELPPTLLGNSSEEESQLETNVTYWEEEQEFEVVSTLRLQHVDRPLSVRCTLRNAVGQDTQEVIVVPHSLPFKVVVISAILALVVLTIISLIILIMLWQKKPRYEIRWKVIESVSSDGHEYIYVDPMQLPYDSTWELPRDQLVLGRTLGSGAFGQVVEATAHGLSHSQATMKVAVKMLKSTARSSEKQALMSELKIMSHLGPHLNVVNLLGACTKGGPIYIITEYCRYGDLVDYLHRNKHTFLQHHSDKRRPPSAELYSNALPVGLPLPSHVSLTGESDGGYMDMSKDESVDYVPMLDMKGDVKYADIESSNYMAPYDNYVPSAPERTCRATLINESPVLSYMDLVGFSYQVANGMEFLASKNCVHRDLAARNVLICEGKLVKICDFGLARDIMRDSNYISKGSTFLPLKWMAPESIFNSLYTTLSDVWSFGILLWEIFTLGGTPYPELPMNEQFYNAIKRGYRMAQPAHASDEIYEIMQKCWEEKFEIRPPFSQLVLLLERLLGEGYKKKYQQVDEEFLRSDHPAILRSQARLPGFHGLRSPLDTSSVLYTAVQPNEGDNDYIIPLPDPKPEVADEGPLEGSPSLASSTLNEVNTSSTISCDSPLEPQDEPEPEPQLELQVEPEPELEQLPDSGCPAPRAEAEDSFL
T1 sequence (P40337 whole entry partner): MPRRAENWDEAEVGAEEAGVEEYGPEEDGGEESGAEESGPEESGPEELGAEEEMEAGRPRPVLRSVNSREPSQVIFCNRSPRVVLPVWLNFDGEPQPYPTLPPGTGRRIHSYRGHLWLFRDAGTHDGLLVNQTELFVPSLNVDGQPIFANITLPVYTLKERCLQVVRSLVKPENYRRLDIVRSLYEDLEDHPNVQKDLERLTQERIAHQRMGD
Serine/threonine-protein kinase B-raf (Homo sapiens), sequence (P15056 whole entry): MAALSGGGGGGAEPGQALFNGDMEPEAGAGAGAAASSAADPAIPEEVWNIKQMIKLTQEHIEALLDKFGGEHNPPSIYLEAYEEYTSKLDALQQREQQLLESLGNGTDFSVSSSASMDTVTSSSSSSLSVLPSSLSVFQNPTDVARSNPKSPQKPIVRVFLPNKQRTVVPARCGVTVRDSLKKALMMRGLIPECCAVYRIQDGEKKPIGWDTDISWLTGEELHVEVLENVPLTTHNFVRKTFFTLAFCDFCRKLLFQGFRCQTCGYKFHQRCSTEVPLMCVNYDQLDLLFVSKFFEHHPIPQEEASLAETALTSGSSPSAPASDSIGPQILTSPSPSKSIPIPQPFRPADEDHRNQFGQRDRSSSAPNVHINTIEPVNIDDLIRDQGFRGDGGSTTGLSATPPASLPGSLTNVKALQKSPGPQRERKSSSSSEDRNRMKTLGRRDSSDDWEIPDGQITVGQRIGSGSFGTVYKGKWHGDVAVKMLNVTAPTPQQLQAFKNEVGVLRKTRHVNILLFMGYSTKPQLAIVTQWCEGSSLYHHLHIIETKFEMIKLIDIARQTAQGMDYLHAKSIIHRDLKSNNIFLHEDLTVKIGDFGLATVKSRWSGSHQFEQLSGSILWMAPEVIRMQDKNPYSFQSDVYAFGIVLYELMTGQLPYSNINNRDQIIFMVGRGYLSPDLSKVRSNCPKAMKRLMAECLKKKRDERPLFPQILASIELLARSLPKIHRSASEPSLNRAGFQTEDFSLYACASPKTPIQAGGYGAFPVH

Broadly, the IC50 is the concentration needed to halve the response being measured. As for `O=C1CCC(N2Cc3c(NC(=O)CCCNC(=O)c4cc(Oc5ccc(NC(=O)Nc6ccc(Cl)c(C(F)(F)F)c6)cc5)ccn4)cccc3C2=O)C(=O)N1` (stereo unspecified), the outcome in series [1] and in series [2] was Active. In addition, the IC50 in the series on EA.hy 926 is 13.4 µM; in the series on HepG2 it was 0.039 µM. Further, the Activity in series [3] was greater than 70%; in series [4] it was “Dose-Dependent Effect”; in the series on HEK293, “Non-Toxic”.
On to `O=C(CNc1cccc2c1C(=O)N(C1CCC(=O)NC1=O)C2=O)NCCCCNC(=O)c1cc(Oc2ccc(NC(=O)Nc3ccc(Cl)c(C(F)(F)F)c3)cc2)ccn1` (stereo unspecified), for which the result in [1] and in [2] was Active. Moreover, the Activity was greater than 70% in series [3], “Dose-Dependent Effect” in [4] and “Non-Toxic” with HEK293.
Consider `Cc1ncsc1-c1ccc(CNC(=O)[C@@H]2C[C@@H](O)CN2C(=O)[C@@H](NC(=O)CCCNC(=O)c2cc(Oc3ccc(NC(=O)Nc4ccc(Cl)c(C(F)(F)F)c4)cc3)ccn2)C(C)(C)C)cc1`, for which the outcome (in [1]; in series [5]; in the series with U-87MG ATCC [14]; in series [19]; in series [2]; in series [25]) was Active. Moreover, the outcome (in [26]; in the series on U-87MG ATCC [30]; in series [33]) was Active. Further, the outcome in series [6] and in series [32] was inactive. Moreover, the Activity came out at 2.49% in series [7]; 0.89% in [8]; 1.71% in series [11]; 3.25% in [12]; 1.63% in series [15]; 1.59% in series [16]. In addition, the Activity in series [17] is 0.49%; in series [18], 1.82%; in series [20], 2.03%; in series [21], 1.66%; in [24], 4.56%; in series [3], greater than 70%. For the same compound, the Activity is 0.85% in series [27]; “Dose-Dependent Effect” in series [4]; 0.63% in [29]; “Dose-Dependent Effect” in series [31]; “Non-Toxic” in the series with HEK293; 1.66% in series [34]. Further, the Activity in [35] amounted to 2.02%. Further, in [9], the viability at 5 µM stood at 96.1%. In [10], the viability at 0.1 µM came to 95.3%. For the same compound, in series [13], the half-maximal inhibitory concentration (IC50) was found to be 12.3 µM. For the same compound, in [22], the viability at 1 µM stood at 96.2%. Also, in series [23], the viability at 10 µM is 94.6%. In series [28], the viability at 20 µM came out at 90.6%.
On to `Cc1ncsc1-c1ccc(CNC(=O)[C@@H]2C[C@H](O)CN2C(=O)[C@@H](NC(=O)CCCNC(=O)c2cc(Oc3ccc(NC(=O)Nc4ccc(Cl)c(C(F)(F)F)c4)cc3)ccn2)C(C)(C)C)cc1`, for which the half-maximal inhibitory concentration (IC50) in the series on EA.hy 926 is greater than 50 µM; in series [13], 20.3 µM; in the series with HepG2, greater than 50 µM. In series [25], the outcome was inactive.
On to `CNC(=O)c1cc(Oc2ccc(NC(=O)Nc3ccc(Cl)c(C(F)(F)F)c3)cc2)ccn1` [SORAFENIB], for which the IC50 in the series on EA.hy 926 is 11 µM; in series [13], 12.7 µM; with HepG2 it was 2.69 µM. Also, in the series with HEK293, the Activity result is given as “Non-Toxic”.
